# Starred links: 1 amine or outer side, 2 acyl side, 3 side chain; linkers in the order of their positions; H or OH if unused. Positions of bridges follow the written chain, without caps; N, C: chain ends. Non-standard residues stand in square brackets, D forms with d. Residues, ends and D or L forms follow the SMILES beside them. *: point of attachment. hPhe(3,5-F2-4-CF3) = N[C@@H](CCc1cc(F)c(C(F)(F)F)c(F)c1)C(=O)O; hPhe(3-Cl-4-CF3) = N[C@@H](CCc1ccc(C(F)(F)F)c(Cl)c1)C(=O)O; NMePhe(4-CF3) = CN[C@@H](Cc1ccc(C(F)(F)F)cc1)C(=O)O; hPhe(4-CF3) = N[C@@H](CCc1ccc(C(F)(F)F)cc1)C(=O)O; NMePhe(4-Cl) = CN[C@@H](Cc1ccc(Cl)cc1)C(=O)O; NMePhe(4-F) = CN[C@@H](Cc1ccc(F)cc1)C(=O)O; hPhe(4-Cl) = N[C@@H](CCc1ccc(Cl)cc1)C(=O)O; NMedβ3hAla = C[C@H](CC(=O)[*:2])N(C)[*:1]; NMeGly(cPent) = CN[C@H](C(=O)O)C1CCCC1; Pro(4,4-F2) = O=C(O)[C@@H]1CC(F)(F)CN1; NMeCha = CN[C@@H](CC1CCCCC1)C(=O)O; NMehLeu = CN[C@@H](CCC(C)C)C(=O)O; NMeChg = CN[C@H](C(=O)O)C1CCCCC1; NMeD = CN[C@@H](CC(=O)O)C(=O)O; NMeL = CN[C@@H](CC(C)C)C(=O)O; NMeV = CN[C@H](C(=O)O)C(C)C; d(β3hA) = C[C@@H](N)CC(=O)O; NMeS = CN[C@@H](CO)C(=O)O; NMeA = CN[C@@H](C)C(=O)O; Piperidide = C1CCN(*)CC1; Pyrrolidide = C1CCN(*)C1; dNMeA = CN[C@H](C)C(=O)O; Ac5c = NC1(C(=O)O)CCCC1; Aze = O=C(O)[C@@H]1CCN1; Ac4c = NC1(C(=O)O)CCC1; CH2CMe2OH = CC(C)(O)C*; Cyclobutyl = C1CC(*)C1; Sar = CNCC(=O)O
# Target: T1, Kras and SOS1 (biotin-tagged human Kras loaded with GDP, His-tagged human SOS1) (Homo sapiens, UniProt P01116, G12D)
# T1 construct: made in house; host or cells: E. coli (stated for Kras only)
# T1 sequence (P01116 1-188 isoform P01116-2 G12D): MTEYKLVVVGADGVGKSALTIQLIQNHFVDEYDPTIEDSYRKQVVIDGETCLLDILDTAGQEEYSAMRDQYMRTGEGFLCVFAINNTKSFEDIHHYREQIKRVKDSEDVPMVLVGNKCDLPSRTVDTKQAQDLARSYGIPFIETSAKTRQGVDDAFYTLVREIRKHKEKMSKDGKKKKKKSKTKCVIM
# Experiment: Protein-protein interaction inhibition between Kras and SOS1 (KrasGl2D-SOS PPI) using AlphaScreen
# Assay type: binding
# Settings: AlphaScreen; biotin-tagged human Kras loaded with GDP, His-tagged human SOS1; read-out: KRAS G12D-SOS PPI IC50
# Outline: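 Donor beads (nickel) hold His-SOS1; acceptor beads (streptavidin) hold biotin-Kras bound to GDP. Signal measured at 520-620 nm following 680 nm excitation.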
row,Structure (SMILES),IC50
1,CC[C@H](C)[C@@H]1NC(=O)[C@H](CC(C)C)N(C)C(=O)C[C@@H](C)NC(=O)[C@H](C(C)C)N(C)C(=O)C2(CCCC2)NC(=O)[C@@H]2CCCN2C(=O)[C@H](CCc2ccc(Cl)cc2)NC(=O)CN(C)C(=O)[C@H](CC2CCCCC2)N(C)C(=O)CN(C)C(=O)CN(C)C1=O [Compound 576] (cyclo([Ac5c][NMeV][d(β3hA)][NMeL]I[Sar][Sar][NMeCha][Sar][hPhe(4-Cl)]P)),230 nM
2,CC[C@H](C)[C@@H]1NC(=O)[C@H](CC(C)C)N(C)C(=O)C[C@@H](C(=O)N2CCCCC2)N(C)C(=O)[C@H](CC2CCCCC2)N(C)C(=O)C2(CCCC2)NC(=O)[C@@H]2CCCN2C(=O)[C@H](CCc2ccc(C(F)(F)F)c(Cl)c2)NC(=O)CN(C)C(=O)[C@H](CC2CCCCC2)N(C)C(=O)CN(C)C(=O)CN(C)C1=O [Compound 577] ([NMeL]I[Sar][Sar][NMeCha][Sar][hPhe(3-Cl-4-CF3)]P[Ac5c][NMeCha][NMeD]-Piperidide; lactam N-11),21 nM
3,CC[C@H](C)[C@@H]1NC(=O)[C@H](CC2CCCCC2)N(C)C(=O)C[C@@H](C)NC(=O)[C@H](CC(C)C)N(C)C(=O)C2(CCCC2)NC(=O)[C@@H]2CCCN2C(=O)[C@H](CCc2ccc(C(F)(F)F)cc2)NC(=O)CN(C)C(=O)[C@H](Cc2ccc(Cl)cc2)N(C)C(=O)CN(C)C(=O)CN(C)C1=O [Compound 578] (cyclo([Ac5c][NMeL][d(β3hA)][NMeCha]I[Sar][Sar][NMePhe(4-Cl)][Sar][hPhe(4-CF3)]P)),120 nM
4,"CC[C@H](C)[C@@H]1NC(=O)[C@H](CC(C)C)N(C)C(=O)C[C@@H](C)N(C)C(=O)[C@H](C2CCCCC2)N(C)C(=O)C2(CCC2)NC(=O)[C@@H]2CC(F)(F)CN2C(=O)[C@H](CCc2cc(F)c(C(F)(F)F)c(F)c2)NC(=O)CN(C)C(=O)[C@H](Cc2ccc(C(F)(F)F)cc2)N(C)C(=O)CN(C)C(=O)CN(C)C1=O [Compound 579] (cyclo([Ac4c][NMeChg][NMedβ3hAla][NMeL]I[Sar][Sar][NMePhe(4-CF3)][Sar][hPhe(3,5-F2-4-CF3)][Pro(4,4-F2)]))",17 nM
5,CC[C@H](C)[C@@H]1NC(=O)[C@H](C)N(C)C(=O)C[C@@H](C(=O)N2CCCC2)NC(=O)[C@H](CC(C)C)N(C)C(=O)[C@H](COCC(C)(C)O)N(C)C(=O)[C@H](CC(C)C)NC(=O)[C@H](CCc2ccc(C(F)(F)F)cc2)NC(=O)CN(C)C(=O)[C@H](Cc2ccc(Cl)cc2)N(C)C(=O)CN(C)C(=O)CN(C)C1=O [Compound 582] ([NMeA]I[Sar][Sar][NMePhe(4-Cl)][Sar][hPhe(4-CF3)]L[NMeS](CH2CMe2OH)[NMeL]D-Pyrrolidide; lactam N-11),24 nM
6,CC[C@H](C)[C@@H]1NC(=O)[C@H](C)N(C)C(=O)C[C@@H](C)NC(=O)[C@H](C2CCCC2)N(C)C(=O)C2(CCCC2)NC(=O)[C@@H]2CCCN2C(=O)[C@H](CCc2ccc(C(F)(F)F)c(Cl)c2)NC(=O)[C@@H](C)N(C)C(=O)[C@H](Cc2ccc(F)cc2)N(C)C(=O)[C@@H]2CCN2C(=O)[C@H](C)N(C)C1=O [Compound 584] (cyclo([Ac5c][NMeGly(cPent)][d(β3hA)][NMeA]I[NMeA][Aze][NMePhe(4-F)][dNMeA][hPhe(3-Cl-4-CF3)]P)),31 nM
7,CC[C@H](C)[C@@H]1NC(=O)[C@H](CC(C)C)N(C)C(=O)C[C@@H](C(=O)N2CCCCC2)N(C)C(=O)[C@H](COC2CCC2)N(C)C(=O)C2(CCCC2)NC(=O)[C@@H]2CCCN2C(=O)[C@H](CCc2ccc(C(F)(F)F)c(Cl)c2)NC(=O)CN(C)C(=O)[C@H](CC2CCCCC2)N(C)C(=O)CN(C)C(=O)CN(C)C1=O [Compound 585] ([NMeL]I[Sar][Sar][NMeCha][Sar][hPhe(3-Cl-4-CF3)]P[Ac5c][NMeS](Cyclobutyl)[NMeD]-Piperidide; lactam N-11),94 nM
8,CC[C@H](C)[C@@H]1NC(=O)[C@H](CC(C)C)N(C)C(=O)C[C@@H](C)NC(=O)[C@H](CCC(C)C)N(C)C(=O)C2(CCCC2)NC(=O)[C@@H]2CCCN2C(=O)[C@H](CCc2ccc(C(F)(F)F)c(Cl)c2)NC(=O)CN(C)C(=O)[C@H](CC2CCCCC2)N(C)C(=O)CN(C)C(=O)CN(C)C1=O [Compound 586] (cyclo([Ac5c][NMehLeu][d(β3hA)][NMeL]I[Sar][Sar][NMeCha][Sar][hPhe(3-Cl-4-CF3)]P)),160 nM
9,CC[C@H](C)[C@@H]1NC(=O)[C@H](CC(C)C)N(C)C(=O)C[C@@H](C(=O)N2CCCCC2)N(C)C(=O)[C@H](C2CCCCC2)N(C)C(=O)[C@H](C)NC(=O)[C@@H]2CCCN2C(=O)[C@H](CCc2ccc(C(F)(F)F)c(Cl)c2)NC(=O)CN(C)C(=O)[C@H](CC2CCCCC2)N(C)C(=O)CN(C)C(=O)CN(C)C1=O [Compound 591] ([NMeL]I[Sar][Sar][NMeCha][Sar][hPhe(3-Cl-4-CF3)]PA[NMeChg][NMeD]-Piperidide; lactam N-11),2.1 nM
10,CC[C@H](C)[C@@H]1NC(=O)[C@H](CC(C)C)N(C)C(=O)C[C@@H](C)NC(=O)[C@H](C2CCCCC2)N(C)C(=O)C2(CCCC2)NC(=O)[C@@H]2CCCN2C(=O)[C@H](CCc2ccc(C(F)(F)F)c(Cl)c2)NC(=O)CN(C)C(=O)[C@H](CC2CCCCC2)N(C)C(=O)CN(C)C(=O)CN(C)C1=O [Compound 593] (cyclo([Ac5c][NMeChg][d(β3hA)][NMeL]I[Sar][Sar][NMeCha][Sar][hPhe(3-Cl-4-CF3)]P)),34 nM
